Test results from US11980633B2, “Method for treating cancer using a combination of DNA-damaging agents and DNA-PK inhibitors” (Vertex Pharmaceuticals Incorporated, priority 2016, dated 2024).

System: A549 lung cancer cells
Assay: Timing and duration of Compound B-2 exposure on sensitization of A549 cells to doxorubicin hydrochloride (24 h); CellTiterGlo viability at 6 days, Bliss analysis
Assay type: cell-based, human
Parameters: scale not given here
Protocol: Cell lines, reagents, equipment, software: The human cancer cell line A549 (CCL-185) was obtained from American Type Culture Collection (ATCC; Manassas, VA). Compound B-2 used in these experiments was not prepared as a co-crystal. A 10 mM stock solution of Compound B-2 was prepared in DMSO (ATCC catalog #4-X) and stored at −20° C. Doxorubicin hydrochloride (dox) was obtained from Sigma (St. Louis, MO) (catalog #D1515), dissolved in DMSO to a 10 mM concentration and stored at −20° C.
Cell culture: The A549 human lung cancer cell line was cultured in DMEM (Life Technologies, catalog #11995) supplemented with 10% fetal bovine serum (Hyclone, catalog #SH30071.03), 1× GlutaMAX (Life Technologies, catalog #35050-061), pyruvate (Life Technologies, catalog #11360-070) and 1× Penicillin/Streptomycin (Life Technologies, catalog #15070) (complete medium). Cells were maintained at a sub-confluent state by passaging every 3-4 days. Cells were plated at 1000 cells per well in a 96-well, clear-bottomed microplate (Corning, catalog #3904), and incubated in a 37° C., 5% CO2 incubator attach overnight prior to compound addition.
Treatment with Compound B-2 and Doxorubicin hydrochloride: Ten mM stocks of Compound B-2 and doxorubicin hydrochloride were made in DMSO and added in combination to the plated cells using an HP digital dispenser D300 (Tecan, Switzerland). For these experiments, combinations with Compound B-2 at all concentrations were run in singlicate using a combination matrix in which Compound B-2 was added as a titration from 20 μM to 0.1 μM on the X-axis of the plate and doxorubicin hydrochloride added in a 2-fold dilution from 80 nM to 0.125 nM for the 6 day and 24 hour co-incubation experiments and 8 nM to 0.0125 nM for the rest of the experiments on the Y-axis. One row contained only the Compound B-2 titration and one column only the doxorubicin hydrochloride titration. Two columns of cells were used as a no-treatment control from which the fractional survival of the treated cells was determined. Cells were cultured at 37° C., 5% CO2, 95% air and 100% relative humidity. The timing of compound addition, the washout of the compounds from the wells of the plates and re-addition of doxorubicin hydrochloride was as detailed in FIG. 1. Briefly, the media from all of the wells in the plate were removed by hand using a multi-pipette, fresh (no compound) media was added, then removed again and then fresh media was added one last time. The re-addition of doxorubicin hydrochloride, where indicated, was performed using the HP D300 as outlined in FIG. 1. After 24 h, all plates were washed as detailed above and fresh medium (no compound) added. The plates were incubated for an additional 5 days (6 days in total).
Cell Viability Analysis: Six days after initial compound addition, 50 μL of CellTiterGlo (prepared according to manufacturer's protocol) was added to each well of the compound titration plates. Luminescence was read on a Pherastar FS luminescence reader (BMG Labtech, Offenberg, Germany) and these values were used for all further analyses.
Computational Methods: Cell viabilities were evaluated for a matrix of doxorubicin hydrochloride and Compound B-2 concentrations in a series of experiments testing different times of Compound B-2 addition and durations of Compound B-2 exposure. The data from each of these experiments were analyzed separately. The steps in the analysis of each experiment are described below. • 1. For each Compound B-2 concentration, the EC50 of doxorubicin hydrochloride was calculated using Prism software. The concentration in the matrix of doxorubicin hydrochloride concentrations closest to the EC50 was then identified. • 2. […]

[2H]c1nc(C)nc([2H])c1-c1cc(NC[C@@H](C)c2cccc3c(C(=O)NC)ccnc23)ncn1 [Compound B-2]
Bliss AUC (Experiment A: Compound B-2 added 0 h after doxorubicin hydrochloride, exposure 24 h): 728 | Bliss AUC (Experiment B: Compound B-2 added at 0 h, exposure 16 h): 101 | Bliss AUC (Experiment C: Compound B-2 added at 8 h, exposure 16 h): 710 | Bliss AUC (Experiment E: Compound B-2 added at 4 h, exposure 12 h): 266 | Bliss AUC (Experiment G: Compound B-2 added at 12 h, exposure 12 h): 415 | Bliss AUC (Experiment H: Compound B-2 added at 0 h, exposure 8 h): 71 | Bliss AUC (Experiment I: Compound B-2 added at 4 h, exposure 8 h): 49 | Bliss AUC (Experiment J: Compound B-2 added at 8 h, exposure 8 h): 12 | Bliss AUC (Experiment K: Compound B-2 added at 12 h, exposure 8 h): 124 | Bliss AUC (Experiment L: Compound B-2 added at 16 h, exposure 8 h): 323
